Laboratory results reported in patent publication US7332489B2, “Methods and compositions of novel triazine compounds” (Reddy US Therapeutics, Inc., priority 2003, dated 2008).
Where two headings read alike, the source gives them in different places.

Tests used:
[1] = tested on: Human aortic smooth muscle cells; conditions: 24 h
Method: Human aortic smooth muscle cells (Clonetics) were used. Cells were grown in basal medium containing 5% fetal bovine serum supplemented with growth factors, basic fibroblast growth factor, epidermal growth factor and insulin. […] The cells were then serum starved for 24 h to induce quiescence. Fresh growth medium containing no compound or 10 μM compound was then added and further incubated for 24 h. Cell number was determined by using a cell proliferation assay kit (Celltiter96 AQueous from Promega).

TNF-α induced IL-6 = experiment: TNF-α-induced IL-6 production determined by IL-6 ELISA; assay type: cell-based; conditions: for % IL6 production compare to TNF stimulation of IL6 (100%), HAEC, IL6, @ 5 uM / % IL6 production compare to TNF stimulation of IL6 (100%), Compds tested @ 10 uM HAEC, IL6: TNF stimulated; for % IL6 production compare to TNF stimulation of IL6 (100%), HAEC, IL6, @ 5 uM: compound 5 uM (bracketed value); for % IL6 production compare to TNF stimulation of IL6 (100%), Compds tested @ 10 uM HAEC, IL6: compound 10 uM; for activity at 10 µM: Homo sapiens
How it was run: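 Human aortic endothelial cells grown to ≥90% confluence, then treated with compounds and stimuli in serum-free medium with 0.2% albumin. Secreted IL-6 in collected media measured by sandwich ELISA (2 ug/ml capture, 200 ng/ml biotinylated detection antibody, streptavidin-HRP), read at 450 nm.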

cells = experiment: Cytotoxicity/Lactate Dehydrogenase assay; assay type: cell-based; conditions: toxic or cause cell death; concentrations (uM) given
Method: An appropriate number of cells are plated in four 96-well plates, one plate for “day 0” and three plates for days 1-3. Cells are treated with at least one compound of the present invention in varying concentrations with and without the apoptosis inducer cisplatin (2 μM) (“+cis” or “-cis”). Unteated cells are also assayed with and without cisplatin. After transfection, the plates are incubated at 37° C. overnight.
An appropriate number of cells are plated in four 96-well plates, one plate for “day 0” and three plates for days 1-3. Cells are treated with at least one compound of the present invention in varying concentrations. The negative control cells have normal media conditions, a duplicate set of wells is treated with the composition in which the compound is provided, but there is no added compound and the positive control cells are treated with the apoptosis inducer cisplatin (2 μM). All of the cells are transfected with a vector having a promoter that is responsive to apoptosis conditions. When apoptosis occurs, the promoter is turned on and the lactic dehydrogenase gene is activated and the enzyme protein is made and active. Activity is easily detected with a color change. After transfection, the plates are incubated at 37° C. overnight.
About 8 mls of warmed alpha MEM LDH lysis buffer (2% Triton X100) and about 8 mls of culture media (1/2 dilution) are combined. Two 96-well v-bottom plates are prepared, one labeled “lysis” and one labeled “supernatant.” To lyse the cells, about 200 μl Alpha MEM lysis buffer (diluted 1/2) is added to one test plate from which the supernatant has been removed and added to the plate labeled supernatant. After mixing, about 200 μl of lysed cells are transferred to the lysis plate. Both the lysis and supernatant plates are centrifuged at about 1600 rpm for about 10 min. After centrifugation, about 100 μl of both the supernatant or lysate is transferred to corresponding 96-well flat-bottomed plates.
The assay for cytotoxicity uses the Cytotoxicity Detection Kit (LDH) from Roche Diagnostics Corp. (Indianapolis, Ind.). Using the directions provided, the dye solution is mixed and added each well of the lysate and supernatant plate and incubated for up to 20-25 min at 15-25° C. in the dark.

endothelial cells = experiment: Toxicity to endothelial cells when AGE stimulated; assay type: cell-based
Method: In general, to determine if there is cytotoxic activity associated with a compound, cells of a particular type, in a growing stage or a quiescient stage, are treated with the compound of interest. Various parameters of cell death or cessation are used to measure the effects of the compound. For example, the amount of nucleic acid or protein synthesis can be measured or visual observation of the state of the cells, such as release from the substrate, can be used to measure the state of the cells.
All treatments, compound-added and controls were carried out in serum free media containing 0.2% albumin. Media from all conditions were collected and used for IL-6 ELISA.

[2] = endothelial cells, AGE stimulated
[3] = 24 h, read-out: Inhibition of TNF-induced IL6 production

CN1CCC(N(C)c2nc(Nc3ccc(OCc4ccccc4)c(Cl)c3)nc(NC3CCCCCC3)n2)CC1
Proliferation Data, cell death [1]: no celldeath
Proliferation Data, cell morphology (rounding, blunting, morphology change) [1]: cell morphologychange at 5 & 10 uM
Inflammation Data, activity in words at 1 uM (TNF-α induced IL-6): Not active
Inflammation Data, activity in words at 5 uM (TNF-α induced IL-6; 5 uM): Not active
Inflammation Data, cell death at 5 uM (TNF-α induced IL-6; 5 uM): 30%
Inflammation Data, cell death at 10 uM (TNF-α induced IL-6; 10 uM): totaldeath

COc1ccc(Nc2nc(Nc3ccc(OC)c(Cl)c3)nc(N(C)C3CCN(C)CC3)n2)cc1Cl [Compound 121, N,N′-Bis-(3-chloro-4-methoxy-phenyl)-N″-methyl-N″-(1-methyl-piperidin-4-yl)-[1,3,5]triazine-2,4,6-triamine]
Toxicity (cells): Toxic by toxicityassay at 0.75 uM.Starts blunting by1 uM and rounding by5 uM
% IL6 production compare to TNF stimulation of IL6 (100%), HAEC, IL6, @ 5 uM (TNF-α induced IL-6; HAEC): [50 @ 5 uM, but some %
% IL6 production compare to TNF stimulation of IL6 (100%), Compds tested @ 10 uM HAEC, IL6 (TNF-α induced IL-6; HAEC): total cell death @ 10 uM
toxicity @ 5 uM (TNF-α induced IL-6; human, 24 h, 5 µM): toxicity (~20%)]
Toxic (AGE-treated) (endothelial cells): toxic

COc1ccc(Nc2nc(NC3CCCCCC3)nc(NC3CCN(Cc4ccccc4)CC3)n2)cc1Cl [Compound 134, N-(1-Benzyl-piperidin-4-yl)-N′-(3-chloro-4-methoxy-phenyl)-N″-cycloheptyl-[1,3,5]triazine-2,4,6-dianmine]
% IL6 production compare to TNF stimulation of IL6 (100%), HAEC, IL6, @ 5 uM (TNF-α induced IL-6; HAEC): 55%
% IL6 production compare to TNF stimulation of IL6 (100%), Compds tested @ 10 uM HAEC, IL6 (TNF-α induced IL-6; HAEC): total cell death
Toxic (AGE-treated) (endothelial cells; [2]): toxic

CN1CCC(N(C)c2nc(Nc3ccc(O)c(Cl)c3)nc(NC3CCCCCC3)n2)CC1 [drawing 1613]
Proliferation Data, cell morphology (rounding, blunting, morphology change) [1]: cell bluntingat 3 to 10 uM
Inflammation Data, cell death at 10 uM (TNF-α induced IL-6; human, 24 h, 10 µM): total cell death

CCN1CCCC1CNc1nc(Nc2ccc(OC)c(F)c2)nc(OCC2CCCCC2)n1 (stereo not drawn) [Compound 116, 6-Cyclohexylmethoxy-N-(1-ethyl-pyrrolidin-2-ylmethyl)-N′-(3-fluoro-4-methoxy-phenyl)-[1,3,5]triazine-2,4-diamine]
melting point: 59 °C

COc1ccc(Nc2nc(NC3CCCCCC3)nc(OC3CCCN(C(C)=O)C3)n2)cc1Cl (stereo not drawn) [Compound E20, 1-[3-{4-(3-chloro-4-methoxyanilino)-6-cycloheptylamino-1,3,5-triazine-2-yloxy}piperidino]-1-ethanone]
melting point: 138 to 140 °C

COc1ccc(Nc2nc(Nc3ccc(OC)c(F)c3)nc(OCC3CCCCC3)n2)cc1F [Compound 115, 6-Cyclohexylmethoxy-N,N′-bis-(3-fluoro-4-methoxy-phenyl)-1,3,5-triazine-2,4-diamine]
melting point: 181 °C

CN(c1nc(Nc2ccc(OCc3ccccc3)c(Cl)c2)nc(NC2CCCCCC2)n1)C1CCNCC1
Proliferation Data, cell death [1]: celldeath at 10 uM
Proliferation Data, cell morphology (rounding, blunting, morphology change) [1]: cell morphologychange at 7.5 uM
Inflammation Data, activity in words at 1 uM (TNF-α induced IL-6): not active
Inflammation Data, cell death at 5 uM (TNF-α induced IL-6; 5 uM): 50%
Inflammation Data, cell death at 10 uM (TNF-α induced IL-6; 10 uM): total cell death

COc1ccc(Nc2nc(NC(C)C)nc(N(C)C3CCNCC3)n2)cc1Cl [Compound 107, N^2-(3-chloro-4-methoxy-phenyl)-N^4-isopropyl-N^6-methyl-N^6-piperidin-4-yl-1,3,5-triazine-2,4,6-triamine]
melting point: 129 °C
% IL6 production compare to TNF stimulation of IL6 (100%), @ 5 uM (TNF-α induced IL-6; HAEC, 5 uM compound, TNF stimulation = 100%): 60 @ 5 uM %
activity at 10 µM (TNF-α induced IL-6; [3]): 50 to 75%

CN1CCC(N(C)c2nc(Nc3ccc(O)c(Cl)c3)nc(NC3CCCCCC3)n2)CC1 [Compound 138, 2-Chloro-4-{4-cycloheptylamino-6-[methyl-(1-methyl-piperidin-4-yl)-amino]-[1,3,5]triazin-2-ylamino}-phenol]
% IL6 production compare to TNF stimulation of IL6 (100%), Compds tested @ 10 uM HAEC, IL6 (TNF-α induced IL-6; HAEC): toxic
Toxic (AGE-treated) (endothelial cells): toxic

COc1ccc(Nc2nc(NC3CCCCCC3)nc(N(C)C3CCNCC3)n2)cc1F [Compound 159, N^2-Cycloheptyl-N^4-(3-fluoro-4-methoxy-phenyl)-N^6-methyl-N^6-piperidin-4-yl-1,3,5-triazine-2,4,6-triamine]
% IL6 production compare to TNF stimulation of IL6 (100%), HAEC, IL6, @ 5 uM (TNF-α induced IL-6; HAEC): total cell death @ 5 and 10
% IL6 production compare to TNF stimulation of IL6 (100%), Compds tested @ 10 uM HAEC, IL6 (TNF-α induced IL-6; HAEC): total cell death @ 5 and 10
Toxic (AGE-treated) (endothelial cells): toxic

CCN1CCCC1CNc1nc(Nc2ccc(OC)c(Cl)c2)nc(NC2CN3CCC2CC3)n1 (stereo not drawn) [Compound 148, N-(1-Aza-bicyclo[2.2.2]oct-3-yl)-N′-(3-chloro-4-methoxy-phenyl)-N″-(1-ethyl-pyrrolidin-2-ylmethyl)-[1,3,5]triazine-2,4,6-triamine]
% IL6 production compare to TNF stimulation of IL6 (100%), HAEC, IL6, @ 5 uM (TNF-α induced IL-6; HAEC): 60%
% IL6 production compare to TNF stimulation of IL6 (100%), Compds tested @ 10 uM HAEC, IL6 (TNF-α induced IL-6; HAEC): total cell death
Toxic (AGE-treated) (endothelial cells): toxic

COc1ccc(Nc2nc(NC3CCCCCC3)nc(NC3CCNCC3)n2)cc1Cl [Compound 135, N^2-(3-chloro-4-methoxy-phenyl)-N^4-cycloheptyl-N^6-piperidin-4-yl-1,3,5-triazine-2,4,6-triamine]
% IL6 production compare to TNF stimulation of IL6 (100%), HAEC, IL6, @ 5 uM (TNF-α induced IL-6; HAEC): 60%
% IL6 production compare to TNF stimulation of IL6 (100%), Compds tested @ 10 uM HAEC, IL6 (TNF-α induced IL-6; HAEC): total cell death
Toxic (AGE-treated) (endothelial cells; [2]): toxic

CCN1CCCC1CNc1nc(NCC2CCCCC2)nc(Nc2ccc(OC)c(F)c2)n1 (stereo not drawn) [Compound 126, N-Cyclohexylmethyl-N′-(1-ethyl-pyrrolidin-2-ylmethyl)-N″-(3-fluoro-4-methoxy-phenyl)-[1,3,5]triazine-2,4,6-triamine]
melting point: 72 °C

COc1ccc(Nc2nc(NCCCCCO)nc(N(C)C3CCNCC3)n2)cc1Cl [Compound 109, 5-[4-(3-chloro-4-methoxy-phenylamino)-6-(methyl-piperidin-4-yl-amino)-1,3,5-triazin-2-ylamino]-pentan-1-ol]
melting point: 101 °C
activity at 10 µM (TNF-α induced IL-6; 24 h, read-out: % IL6 production compare to TNF stimulation of IL6 (100%), Compds tested @ 10 uM HAEC, IL6): 40%
activity at 10 µM (TNF-α induced IL-6; [3]): 25 to 50%

COc1ccc(Nc2nc(Cl)nc(OCC3CCCCC3)n2)cc1Cl [Compound 117, (4-Chloro-6-cyclohexylmethoxy-[1,3,5]triazin-2-yl)-(3-chloro-4-methoxy-phenyl)-amine]
melting point: 114 °C

COc1ccc(Nc2nc(NC3CCCCCC3)nc(OC(C)C)n2)cc1Cl [Compound E21, N^2-(3-chloro-4-methoxyphenyl)-N^4-cycloheptyl-6-isopropoxy-1,3,5-triazine-2,4-diamine]
melting point: 136 to 138 °C

COc1ccc(Nc2nc(Nc3ccc(OC)c(Cl)c3)nc(OCC3CCCCC3)n2)cc1Cl [Compound 118, N,N′-Bis-(3-chloro-4-methoxy-phenyl)-6-cyclohexylmethoxy-1,3,5-triazine-2,4-diamine]
melting point: 188 °C
